Test results from US12091405B2, “Substituted pyrazole compounds as indoleamine 2,3-dioxygenase inhibitors” (Merck Sharp & Dohme LLC, priority 2018, dated 2024).

Key:
IDO1 [1] = target: T1, IDO1 (Homo sapiens, UniProt P14902); test: IDO1 Cellular Assay in HeLa Cells Stimulated with IFNγ; format: cell-based; conditions: IFNγ 100 ng/mL, 300 uM L-tryptophan, about 48 hours, fluorescence readout, read-out: IDO1 HELA Cell Assay, IC50
IDO1 [2] = target: T1, IDO1; test: IDO1 Human Whole Blood Assay; format: cell-based; set-up: Human whole blood was drawn in sodium heparin coated tubes from healthy internal donors; from tissue; host or cells: human whole blood from healthy donors, stimulated with LPS and IFNγ; conditions: LPS and IFNγ 100 ng/mL, overnight (18 h), kynurenine by LC/MS/MS
Procedure: IDO1 Human Whole Blood Assay
Compounds to be tested were serially diluted in ten 3-fold steps in DMSO starting from 10 mM. 3 μL of compound dilutions or DMSO alone were then dispensed from the dilution plate into a polypropylene 96-well assay plate containing 97 μL of RPMI medium using an Echo 555 acoustic liquid handler (Labcyte). LPS and IFNγ was prepared in RPMI medium to a 10× of final conc. (1000 ng/mL), final concentration is 100 ng/mL.
Human whole blood was drawn in sodium heparin coated tubes from healthy internal donors. 240 μL of blood was transferred to each of the wells of a v-bottom 96 well plate. 30 μL of compound was transferred from intermediate dilution plate, and incubated for 15 min. 30 μL from stimulants was then transferred to blood and mixed thoroughly. Plate was covered with breathable membrane and incubated at 37° C. for overnight (18 h).
On day 2, isotope labeled standard solutions of kynurenine and tryptophan was made in water at 10× concentration and 30 μL was added to the blood at 3 μM final concentration. The assay plates were centrifuged at 300×G for 10 min with no brake to separate plasma from red blood cells. 60 μL of plasma samples was removed without disturbing red blood cells. Plasma was diluted with RPMI in 1:1 ratio and proteins were precipitated out with two volumes of Acetonitrile. The plates were centrifuged at 4000×G for 60 min. 20 μL of supernatant was carefully transferred to a 384 well plate containing 40 μL of 0.1% formic acid in water and analyzed by LC/MS/MS.
LC/MS/MS analyses were performed using Thermo Fisher's LX4-TSQ Quantum Ultra system. This system consists of four Agilent binary high-performance liquid chromatography (HPLC) pumps and a TSQ Quantum Ultra triple quadrupole MS/MS instrument. For each sample, 5 μL were injected onto an Atlantis T3 column (2.1 mm×150 mm, 3 μm particle size) from Waters. The mobile phase gradient pumped at 0.8 mL/min was used to elute the analytes from the column at 25 EC. The elution started at 0% B increasing linearly to 25% B at 6.5 min, holding at 25% for 1 min, re-equilibrating to 10 min. Mobile phase A consisted of 0.1% formic acid in water. Mobile phase B consisted of 0.1% of formic acid in acetonitrile. Data were acquired in positive mode using a HESI interface. The operational parameters for the TSQ Quantum Ultra instrument were a spray voltage of 4000 V, capillary temperature of 380° C., vaporizer temperature 400° C., shealth gas 60 arbitrary units, Aux gas 20 arbitrary units, tube lens 85 and collision gas 1.2 mTorr. SRM chromatograms of kynurenine (Qi: 209.2>Q3:94.0) and internal standard (Qi: 215.3>Q3:98.2) were collected for 90 sec. The peak area was integrated by Xcalibur Quan software. The ratios between the kynurenine generated in the reaction and 2D6-Kynurenine spiked-in internal standard were used to generate percentage inhibition and IC50 values. Compounds were titrated and IC50's were calculated by 4 parameter sigmoidal curve fitting formula.
The biological activity data of selective compounds using the IDO1 human whole blood assay described above are summarized in the table below.

T1 sequence (P14902 whole entry): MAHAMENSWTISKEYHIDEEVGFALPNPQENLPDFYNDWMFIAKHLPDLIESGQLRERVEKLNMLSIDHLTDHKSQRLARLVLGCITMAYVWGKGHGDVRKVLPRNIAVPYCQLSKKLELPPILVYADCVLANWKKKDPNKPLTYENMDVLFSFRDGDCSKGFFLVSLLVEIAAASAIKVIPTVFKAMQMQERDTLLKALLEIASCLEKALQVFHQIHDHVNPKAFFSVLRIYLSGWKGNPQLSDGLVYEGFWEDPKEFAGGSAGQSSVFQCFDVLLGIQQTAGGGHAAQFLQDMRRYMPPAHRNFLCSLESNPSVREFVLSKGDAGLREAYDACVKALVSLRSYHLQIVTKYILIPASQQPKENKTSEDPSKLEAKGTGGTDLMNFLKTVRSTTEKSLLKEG

Compound	IC50 (IDO1 [1]) [nM]	IC50 (IDO1 [2]) [nM]
Cc1cccc(C2CCN(C(=O)Cn3nc(C(=O)N4CC[C@H](O)[C@H](C)C4)c4c3C[C@H]3C[C@@H]43)CC2)c1C [Example 20, 1-[4-(2,3-dimethylphenyl)piperidin-1-yl]-2-{(3bR,4aR)-3-[(3R,4S)-4-hydroxy-3-methylpiperidine-1-carbonyl]-3b,4,4a,5-tetrahydro-1H-cyclopropa[3,4]cyclopenta[1,2-c]pyrazol-1-yl}ethan-1-one]	0.9	53.3
Cc1cccc(C2CCN(C(=O)Cn3nc(C(=O)N4CC[C@H](O)[C@H](F)C4)c4c3C[C@H]3C[C@@H]43)CC2)c1C [Example 26, 1-[4-(2,3-dimethylphenyl)piperidin-1-yl]-2-{(3bR,4aR)-3-[(3R,4S)-3-fluoro-4-hydroxypiperidine-1-carbonyl]-3b,4,4a,5-tetrahydro-1H-cyclopropa[3,4]cyclopenta[1,2-c]pyrazol-1-yl}ethan-1-one]	1.8	258
Cc1cccc(C2CCN(C(=O)Cn3nc(C(=O)N4CCN(C(=O)CO)CC4)c4c3C[C@H]3C[C@@H]43)CC2)c1C [Example 18, 1-[4-(2,3-dimethylphenyl)piperidin-1-yl]-2-{(3bR,4aR)-3-[4-(hydroxyacetyl)piperazine-1-carbonyl]-3b,4,4a,5-tetrahydro-1H-cyclopropa[3,4]cyclopenta[1,2-c]pyrazol-1-yl}ethan-1-one]	2.3	58.9
Cc1cccc(C2CCN(C(=O)Cn3nc(C(=O)N4CCC(O)CC4)c4c3CCC4)CC2(F)F)c1C (single isomer, unassigned) [Example 14, 1-(4-(2,3-dimethylphenyl)-3,3-difluoropiperidin-1-yl)-2-(3-(4-hydroxypiperidine-1-carbonyl)-5,6-dihydrocyclopenta[c]pyrazol-1(4H)-yl)ethanone]	3.4	1390

Now from value to compound:

IC50 (IDO1 [1]) [nM]	IC50 (IDO1 [2]) [nM]	Compound
9.8	475	Cc1ccccc1C1CCN(C(=O)Cn2nc(C(=O)N3C[C@@H](C)O[C@@H](C)C3)c3c2CCC3)CC1 [Example 62, 2-(3-((2S,6R)-2,6-dimethylmorpholine-4-carbonyl)-5,6-dihydrocyclopenta[c]pyrazol-1(4H)-yl)-1-(4-(o-tolyl)piperidin-1-yl)ethan-1-one]
3.5	488	Cc1cccc(C2CCN(C(=O)Cn3nc(C(=O)N4CC[C@@H](O)[C@@H](F)C4)c4c3CCC4)CC2)c1C [Example 60, 1-(4-(2,3-dimethylphenyl)piperidin-1-yl)-2-(3-((3S,4R)-3-fluoro-4-hydroxypiperidine-1-carbonyl)-5,6-dihydrocyclopenta[c]pyrazol-1(4H)-yl)ethanone]
